For 7 compounds, inhibition and Activity results are on record in ChEMBL document CHEMBL1221222, “Analysis of the eukaryotic prenylome by isoprenoid affinity tagging” (Nat Chem Biol, 2009).

In assay [1] the test system is COS-7. The experiment in a line: Inhibition of FTase in african green monkey COS7 cells assessed as protein prenylation at 15 uM by Western blot analysis. The format is cell-based. A general note: Immunoblotting shows a protein as a band on a membrane.
The test system of assay [2] is COS-7. Kind of assay: Inhibition of GGTase-1 in african green monkey COS7 cells assessed as protein prenylation at >5 uM by Western blot analysis. The class given is cell-based.
Assay [3] deals with COS-7. Kind of assay: Inhibition of RabGGTase in african green monkey COS7 cells assessed as Rab prenylation by Western blot analysis. The class given is cell-based.
Assay [4] deals with Protein farnesyltransferase subunit beta (Homo sapiens), P49356 [W102T,Y154T,Y205T]. Kind of assay: Binding affinity to FTase W102T/Y154T/Y205T mutant assessed as prenylation of dansyl-labeled GCVLL by fluorescence based assay.
In assay [5] the test system is Geranylgeranyl transferase type-1 subunit beta (Homo sapiens), P53609 [F52Y,F53Y,Y126T]. The experiment in a line: Binding affinity to GGTase-1 F52Y/F53Y/Y126T mutant assessed as prenylation of dansyl-labeled GCVLS by fluorescence based assay.
Assay [6] deals with Protein farnesyltransferase subunit beta (Homo sapiens), P49356 [W102T,Y154T,Y205T]. Kind of assay: Binding affinity at FTase W102T/Y154T/Y205T mutant assessed as prenylation of dansyl-labeled GCVLS by fluorescence based assay.
Assay [7] concerns Geranylgeranyl transferase type-1 subunit beta (Homo sapiens), P53609 [F52Y,F53Y,Y126T]. The experiment in a line: Binding affinity to GGTase-1 F52Y/F53Y/Y126T mutant assessed as prenylation of dansyl-labeled GCVLL by fluorescence based assay.
For assay [8], the system named is COS-7. Kind of assay: Inhibition of RabGGTase in african green monkey COS7 cells assessed as Rab prenylation up to 50 uM by Western blot analysis. The format is cell-based.
Assay [9] has as its system COS-7. Kind of assay: Inhibition of FTase in african green monkey COS7 cells assessed as protein prenylation at 100 uM by Western blot analysis. The format is cell-based.
For assay [10], the system named is COS-7. Kind of assay: Inhibition of RabGGTase in african green monkey COS7 cells assessed as unprenylated Rab39B level by MudPIT analysis. The format is cell-based.
The subject of assay [11] is COS-7. Kind of assay: Inhibition of RabGGTase in african green monkey COS7 cells assessed as unprenylated Rab37 level by MudPIT analysis. The format is cell-based.
In assay [12] the test system is COS-7. Kind of assay: Inhibition of RabGGTase in african green monkey COS7 cells assessed as unprenylated Rab14 level by MudPIT analysis. The format is cell-based.
Assay [13] deals with COS-7. Kind of assay: Inhibition of RabGGTase in african green monkey COS7 cells assessed as unprenylated Rab27B level by MudPIT analysis. The format is cell-based.
The test system of assay [14] is COS-7. Kind of assay: Inhibition of RabGGTase in african green monkey COS7 cells assessed as unprenylated Rab30 level by MudPIT analysis. The format is cell-based.
In assay [15] the test system is COS-7. Kind of assay: Inhibition of RabGGTase in african green monkey COS7 cells assessed as unprenylated Rab03C level by MudPIT analysis. The class given is cell-based.
Assay [16] deals with COS-7. The experiment in a line: Inhibition of RabGGTase in african green monkey COS7 cells assessed as unprenylated Rab27A level by MudPIT analysis. The class given is cell-based.
Assay [17] relates to COS-7. The experiment in a line: Inhibition of RabGGTase in african green monkey COS7 cells assessed as unprenylated Rab04A level by MudPIT analysis. The format is cell-based.
For assay [18], the system named is COS-7. Kind of assay: Inhibition of RabGGTase in african green monkey COS7 cells assessed as unprenylated Rab02B level by MudPIT analysis. The class given is cell-based.
In assay [19] the test system is COS-7. Kind of assay: Inhibition of RabGGTase in african green monkey COS7 cells assessed as unprenylated Rab01B level by MudPIT analysis. The class given is cell-based.
For assay [20], the system named is COS-7. Kind of assay: Inhibition of RabGGTase in african green monkey COS7 cells assessed as unprenylated Rab21 level by MudPIT analysis. The class given is cell-based.
For assay [21], the system named is COS-7. Kind of assay: Inhibition of RabGGTase in african green monkey COS7 cells assessed as unprenylated Rab11B level by MudPIT analysis. The class given is cell-based.
The subject of assay [22] is COS-7. Kind of assay: Inhibition of RabGGTase in african green monkey COS7 cells assessed as unprenylated Rab06C level by MudPIT analysis. The class given is cell-based.
In assay [23] the test system is COS-7. Kind of assay: Inhibition of RabGGTase in african green monkey COS7 cells assessed as unprenylated Rab03D level by MudPIT analysis. The class given is cell-based.
The test system of assay [24] is COS-7. Kind of assay: Inhibition of RabGGTase in african green monkey COS7 cells assessed as unprenylated Rab08B level by MudPIT analysis. The format is cell-based.
In assay [25] the test system is COS-7. The experiment in a line: Inhibition of RabGGTase in african green monkey COS7 cells assessed as unprenylated Rab39A level by MudPIT analysis. The format is cell-based.
In assay [26] the test system is COS-7. Kind of assay: Inhibition of RabGGTase in african green monkey COS7 cells assessed as unprenylated Rab05A level by MudPIT analysis. The class given is cell-based.
Assay [27] deals with COS-7. Kind of assay: Inhibition of isoprenoid biosynthesis in african green monkey COS7 assessed as unprenylated Rab protein level by Western blot analysis. The class given is functional, cell-based. The note with it: Chlorocebus aethiops.
Assay [28] deals with COS-7. Kind of assay: Inhibition of RabGGTase in african green monkey COS7 cells assessed as unprenylated Rab22A level by MudPIT analysis. The class given is cell-based.
The subject of assay [29] is COS-7. The experiment in a line: Inhibition of RabGGTase in african green monkey COS7 cells assessed as unprenylated Rab41 level by MudPIT analysis. The format is cell-based.
Assay [30] deals with COS-7. The experiment in a line: Inhibition of RabGGTase in african green monkey COS7 cells assessed as unprenylated Rab33B level by MudPIT analysis. The class given is cell-based.
Assay [31] deals with COS-7. The experiment in a line: Inhibition of RabGGTase in african green monkey COS7 cells assessed as unprenylated Rab05C level by MudPIT analysis. The format is cell-based.
The subject of assay [32] is COS-7. Kind of assay: Inhibition of RabGGTase in african green monkey COS7 cells assessed as unprenylated Rab18 level by MudPIT analysis. The class given is cell-based.
Assay [33] relates to COS-7. Kind of assay: Inhibition of RabGGTase in african green monkey COS7 cells assessed as unprenylated Rab09A level by MudPIT analysis. The format is cell-based.
Assay [34] relates to COS-7. The experiment in a line: Inhibition of RabGGTase in african green monkey COS7 cells assessed as unprenylated Rab35 level by MudPIT analysis. The class given is cell-based.
For assay [35], the system named is COS-7. Kind of assay: Inhibition of RabGGTase in african green monkey COS7 cells assessed as unprenylated Rab10 level by MudPIT analysis. The class given is cell-based.
Assay [36] has as its system COS-7. The experiment in a line: Inhibition of RabGGTase in african green monkey COS7 cells assessed as unprenylated Rab09B level by MudPIT analysis. The format is cell-based.
The test system of assay [37] is COS-7. The experiment in a line: Inhibition of RabGGTase in african green monkey COS7 cells assessed as unprenylated Rab31 level by MudPIT analysis. The class given is cell-based.
In assay [38] the test system is COS-7. The experiment in a line: Inhibition of RabGGTase in african green monkey COS7 cells assessed as unprenylated Rab11A level by MudPIT analysis. The format is cell-based.
The subject of assay [39] is COS-7. The experiment in a line: Inhibition of RabGGTase in african green monkey COS7 cells assessed as unprenylated Rab15 level by MudPIT analysis. The class given is cell-based.
For assay [40], the system named is COS-7. The experiment in a line: Inhibition of RabGGTase in african green monkey COS7 cells assessed as unprenylated Rab01A level by MudPIT analysis. The format is cell-based.
Assay [41] concerns COS-7. The experiment in a line: Inhibition of RabGGTase in african green monkey COS7 cells assessed as unprenylated Rab34 level by MudPIT analysis. The format is cell-based.
For assay [42], the system named is COS-7. The experiment in a line: Inhibition of RabGGTase in african green monkey COS7 cells assessed as unprenylated Rab43 level by MudPIT analysis. The format is cell-based.
Assay [43] concerns COS-7. The experiment in a line: Inhibition of RabGGTase in african green monkey COS7 cells assessed as unprenylated Rab07a level by MudPIT analysis. The format is cell-based.
For assay [44], the system named is COS-7. Kind of assay: Inhibition of RabGGTase in african green monkey COS7 cells assessed as unprenylated Rab13 level by MudPIT analysis. The format is cell-based.
The test system of assay [45] is COS-7. The experiment in a line: Inhibition of RabGGTase in african green monkey COS7 cells assessed as unprenylated Rab06A level by MudPIT analysis. The class given is cell-based.
Assay [46] concerns COS-7. The experiment in a line: Inhibition of RabGGTase in african green monkey COS7 cells assessed as unprenylated Rab06B level by MudPIT analysis. The class given is cell-based.
Assay [47] relates to COS-7. Kind of assay: Inhibition of RabGGTase in african green monkey COS7 cells assessed as unprenylated Rab03B level by MudPIT analysis. The format is cell-based.
Assay [48] has as its system COS-7. Kind of assay: Inhibition of RabGGTase in african green monkey COS7 cells assessed as unprenylated Rab02A level by MudPIT analysis. The class given is cell-based.
The subject of assay [49] is COS-7. The experiment in a line: Inhibition of RabGGTase in african green monkey COS7 cells assessed as unprenylated Rab08A level by MudPIT analysis. The class given is cell-based.
For assay [50], the system named is COS-7. Kind of assay: Inhibition of RabGGTase in african green monkey COS7 cells assessed as unprenylated Rab05B level by MudPIT analysis. The class given is cell-based.
Assay [51] concerns COS-7. The experiment in a line: Inhibition of RabGGTase in african green monkey COS7 cells assessed as unprenylated Rab04B level by MudPIT analysis. The format is cell-based.
The test system of assay [52] is COS-7. Kind of assay: Inhibition of RabGGTase in african green monkey COS7 cells assessed as unprenylated Rab03A level by MudPIT analysis. The format is cell-based.

Active and inactive are the calls of the source. The calls are words filed in the database; no cut-off is given here.

Chain of Geranylgeranyl transferase type-1 subunit beta (Homo sapiens), P53609 [F52Y,F53Y,Y126T] (P53609 whole entry F52Y/F53Y/Y126T): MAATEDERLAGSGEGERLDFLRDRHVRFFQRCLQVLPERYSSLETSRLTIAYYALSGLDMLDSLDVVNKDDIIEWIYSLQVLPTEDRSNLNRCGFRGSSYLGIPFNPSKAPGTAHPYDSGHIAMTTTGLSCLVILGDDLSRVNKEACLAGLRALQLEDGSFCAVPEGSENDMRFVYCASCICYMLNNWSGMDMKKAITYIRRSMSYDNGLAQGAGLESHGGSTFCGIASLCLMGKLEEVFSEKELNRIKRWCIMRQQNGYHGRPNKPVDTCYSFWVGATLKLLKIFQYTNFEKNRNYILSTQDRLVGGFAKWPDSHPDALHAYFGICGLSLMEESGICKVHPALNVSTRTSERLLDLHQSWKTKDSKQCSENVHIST
Chain of Protein farnesyltransferase subunit beta (Homo sapiens), P49356 [W102T,Y154T,Y205T] (P49356 whole entry W102T/Y154T/Y205T): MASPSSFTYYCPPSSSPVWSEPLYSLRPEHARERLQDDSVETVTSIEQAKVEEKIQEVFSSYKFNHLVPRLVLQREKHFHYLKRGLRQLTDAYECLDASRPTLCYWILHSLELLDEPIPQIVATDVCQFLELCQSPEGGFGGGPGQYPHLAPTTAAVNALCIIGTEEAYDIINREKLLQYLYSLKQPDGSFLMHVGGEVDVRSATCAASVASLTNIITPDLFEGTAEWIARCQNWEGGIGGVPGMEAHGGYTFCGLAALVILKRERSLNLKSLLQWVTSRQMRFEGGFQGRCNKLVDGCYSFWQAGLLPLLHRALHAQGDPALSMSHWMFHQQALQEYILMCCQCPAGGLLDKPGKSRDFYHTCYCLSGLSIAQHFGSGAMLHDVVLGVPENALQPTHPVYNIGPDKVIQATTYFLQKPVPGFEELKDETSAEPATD

On to `COC(=O)[C@H](CC(C)C)NC(=O)c1ccc(NC[C@@H](N)CS)cc1-c1cccc2ccccc12`, for which the inhibition entry in assay [1] and in assay [2] was “Active” throughout. For the same compound, the inhibition entry in assay [3] is “inactive”.

Turning to `CC(C)=CCC/C(C)=C/CC/C(C)=C/CC/C(C)=C/COP(=O)(O)OP(=O)(O)O`, the result in assay [4], in assay [5], in assay [6] and in assay [7] was inactive.

With `CCC[C@@H]1[C@@H](Sc2ccc(OC)cc2)[C@@H](C(=O)O)[C@H](c2ccc(Br)cc2)N1S(=O)(=O)c1ccc(C)cc1`, the inhibition result in assay [8] was “inactive”.

Consider `CSCC[C@H](NC(=O)[C@H](Cc1ccccc1)NC[C@@H](NC[C@@H](N)CS)C(C)C)C(=O)O`, for which the inhibition result in [9] is “inactive”.

In the case of `CC[C@H](C)C(=O)O[C@H]1CCC=C2C=C[C@H](C)[C@H](CC[C@@H]3C[C@@H](O)CC(=O)O3)[C@H]21`, the Activity in assay [10] came out at 0.2 pmol; in assay [11], 0.2 pmol; in assay [12] it was 1.5 pmol; in assay [13], 0.1 pmol; in assay [14], 0.2 pmol; in assay [15], 0.4 pmol. In addition, the Activity came to 0.1 pmol in assay [16]; 0.2 pmol in [17]; 0.5 pmol in [18]; 1.8 pmol in assay [19]; 0.6 pmol in assay [20]; 1.5 pmol in assay [21]. Moreover, the Activity turned out to be 0.2 pmol in assay [22]; 1.1 pmol in assay [23]; 0.4 pmol in assay [24]; 0.2 pmol in [25]; 1.3 pmol in assay [26]; 0.8 pmol in assay [28]. Further, the Activity was 0.2 pmol in [29]; 0.2 pmol in assay [30]; 1.6 pmol in assay [31]; 0.7 pmol in assay [32]; 0.8 pmol in assay [33]; 0.6 pmol in assay [34]. For the same compound, the Activity came out at 1 pmol in [35]; 0.3 pmol in assay [36]; 0.3 pmol in assay [37]; 1.2 pmol in assay [38]; 0.1 pmol in assay [39]; 1.7 pmol in [40]. Further, the Activity in assay [41] is 0.1 pmol; in assay [42], 0.2 pmol; in assay [43], 1.7 pmol; in assay [44], 0.4 pmol; in assay [45] it was 0.8 pmol; in assay [46] it was 0.6 pmol. The Activity in assay [47] amounted to 0.4 pmol; in [48], 1.2 pmol; in assay [49], 0.6 pmol; in assay [50] it was 1.1 pmol; in assay [51] it was 0.2 pmol; in [52], 0.7 pmol. Also, in [27], the inhibition entry is “Active”.

With `CCCCCCS[C@H]1[C@@H](C(=O)O)[C@H](c2ccc(Br)cc2)N(S(=O)(=O)c2ccc(C)cc2)[C@@H]1CCC`, the inhibition entry in assay [8] was “inactive”.

On to `CCCCCCS[C@H]1[C@@H](C(=O)O)[C@H](c2ccc(Br)cc2)N(S(=O)(=O)c2ccc(C)cc2)[C@@H]1CCCCCC`, for which the inhibition entry in assay [8] was “inactive”.
